Calls of active or inactive are those of the source. No cut-off for these calls is given here.
Experiments:
[1] = Oral bioavailability in Wistar rat at 10 mg/kg; type: ADME, organism-based; details: in vivo
[2] = Cmax in Wistar rat at 10 mg/kg, po; type: ADME, organism-based; design: dose 10 mg/kg, route oral; details: in vivo
[3] = Clearance in Wistar rat at 3 mg/kg, iv; type: ADME, organism-based; details: in vivo
Mus musculus [4] = experiment: Anti Steato-hepatitic activity in STZ/HFD induced C57BL/6J mouse STAM model assessed as reduction in fibrosis at 3 to 30 mg/kg, po administered via oral gavage once daily for 3 weeks and measured on 9 week by Picro-Sirius Red staining based assay; type: functional, organism-based
Rattus norvegicus [5] = experiment: In-vivo agonist activity at FXR in orally dosed Han Wistar rat assessed as upregulation of BSEP mRNA level in liver administered via oral gavage once daily for 14 days measured post last dose by qRT-PCR analysis; type: functional, organism-based
[6] = Half life in mouse at 3 mg/kg, iv; type: ADME, organism-based; details: in vivo
[7] = Volume of distribution at steady state in rabbit at 5 mg/kg, iv; type: ADME, organism-based, Oryctolagus cuniculus; details: in vivo, read-out: Vdss
[8] = Terminal half life in orally dosed rat; type: ADME, organism-based; details: in vivo, po, read-out: beta t1/2 (converted)
[9] = Volume of distribution at steady state in Wistar rat at 3 mg/kg, iv; type: ADME, organism-based; details: in vivo, read-out: Vdss
[10] = target: T1, Bile acid receptor (Rattus norvegicus) (UniProt Q62735); experiment: Agonist activity at FXR in rat primary hepatocytes assessed as increase in BSEP mRNA level incubated for 24 hrs by qRT-PCR analysis relative to DMSO; type: cell-based
T1 sequence (whole entry): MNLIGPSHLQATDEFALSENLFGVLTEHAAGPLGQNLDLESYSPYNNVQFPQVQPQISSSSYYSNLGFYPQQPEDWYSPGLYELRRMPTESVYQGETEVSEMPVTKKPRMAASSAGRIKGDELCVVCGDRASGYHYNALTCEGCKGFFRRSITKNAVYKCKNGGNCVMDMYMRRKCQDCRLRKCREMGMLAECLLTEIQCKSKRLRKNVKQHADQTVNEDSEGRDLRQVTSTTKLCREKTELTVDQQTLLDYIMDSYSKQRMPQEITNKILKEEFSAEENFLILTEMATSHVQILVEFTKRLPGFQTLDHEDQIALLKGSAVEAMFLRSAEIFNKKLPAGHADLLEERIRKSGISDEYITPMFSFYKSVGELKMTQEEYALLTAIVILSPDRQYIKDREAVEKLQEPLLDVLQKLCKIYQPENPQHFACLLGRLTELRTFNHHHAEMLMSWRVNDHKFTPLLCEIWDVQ

[11] = Oral bioavailability in Wistar rat at 10 mg/kg in presence of 0.5% CMC/0.5% Tween 80; type: ADME, organism-based; details: in vivo
[12] = target: T2, Retinoic acid receptor RXR-alpha (Homo sapiens, UniProt P19793); experiment: Agonist activity at GAL4-fused RXR LBD (unknown origin) expressed in HEK293T cells incubated for 24 by BrightGlo reagent based assay; type: cell-based
T2 sequence (P19793 whole entry): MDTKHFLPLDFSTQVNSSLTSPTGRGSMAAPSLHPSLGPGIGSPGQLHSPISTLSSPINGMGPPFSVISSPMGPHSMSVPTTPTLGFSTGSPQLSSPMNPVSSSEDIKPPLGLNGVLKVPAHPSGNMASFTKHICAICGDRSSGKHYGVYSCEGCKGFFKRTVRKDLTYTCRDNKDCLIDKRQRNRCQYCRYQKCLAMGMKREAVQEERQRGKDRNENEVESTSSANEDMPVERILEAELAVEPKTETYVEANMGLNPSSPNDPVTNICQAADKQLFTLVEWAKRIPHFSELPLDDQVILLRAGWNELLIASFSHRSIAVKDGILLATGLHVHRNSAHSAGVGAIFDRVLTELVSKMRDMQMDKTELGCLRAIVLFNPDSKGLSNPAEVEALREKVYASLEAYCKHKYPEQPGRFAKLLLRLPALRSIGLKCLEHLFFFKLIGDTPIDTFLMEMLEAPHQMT

Rattus norvegicus [13] = experiment: In-vivo agonist activity at FXR in orally dosed Han Wistar rat assessed as upregulation of FGF15 mRNA level in ileum administered via oral gavage once daily for 14 days measured post last dose by qRT-PCR analysis; type: functional, organism-based
[14] = Oral bioavailability in dog at 2 mg/kg; type: ADME, organism-based, Canis lupus familiaris; details: in vivo
[15] = target: T3, Peroxisome proliferator-activated receptor gamma (Homo sapiens, UniProt P37231); experiment: Agonist activity at GAL4-fused PPARgamma (unknown origin) expressed in HEK293T cells incubated for 24 by BrightGlo reagent based assay; type: cell-based
T3 sequence (P37231 whole entry): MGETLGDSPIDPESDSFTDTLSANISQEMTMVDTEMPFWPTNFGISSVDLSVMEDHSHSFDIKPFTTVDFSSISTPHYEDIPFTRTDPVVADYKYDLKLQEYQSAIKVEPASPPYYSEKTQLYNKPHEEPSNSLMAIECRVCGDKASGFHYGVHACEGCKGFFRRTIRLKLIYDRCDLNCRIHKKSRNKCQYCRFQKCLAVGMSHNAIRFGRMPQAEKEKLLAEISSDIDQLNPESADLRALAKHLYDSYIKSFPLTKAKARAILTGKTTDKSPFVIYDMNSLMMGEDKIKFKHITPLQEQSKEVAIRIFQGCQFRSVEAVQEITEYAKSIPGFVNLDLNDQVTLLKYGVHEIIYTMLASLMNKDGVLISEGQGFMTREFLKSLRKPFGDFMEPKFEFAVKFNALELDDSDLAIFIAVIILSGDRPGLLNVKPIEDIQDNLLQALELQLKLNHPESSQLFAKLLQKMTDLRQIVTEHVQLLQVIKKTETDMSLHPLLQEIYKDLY

Rattus norvegicus [16] = experiment: In-vivo agonist activity at FXR in orally dosed Han Wistar rat assessed as upregulation of SHP mRNA level in liver administered via oral gavage once daily for 14 days measured post last dose by qRT-PCR analysis; type: functional, organism-based
Mus musculus [17] = species on record: Mus musculus; experiment: Anti Steato-hepatitic activity in C57BL/6J mouse STAM model assessed as change in Map3k13 gene level in liver; type: functional, organism-based
[18] = Oral bioavailability in Wistar rat at 30 mg/kg; type: ADME, organism-based; details: in vivo
[19] = AUC in Wistar rat at 30 mg/kg, po; type: ADME, organism-based; details: in vivo
Mus musculus [20] = experiment: Anti Steato-hepatitic activity in STZ/HFD induced oral dosed C57BL/6J mouse STAM model assessed as reduction in microvesicular fat deposition administered via oral gavage once daily for 3 weeks and measured on 9 week by H and E staining based assay; type: functional, organism-based

bioavailability [1]: 52% | Cmax [2]: 12.4 µM | clearance [3]: 7 mL/min/kg | half-life [6]: 4.5 h | Vd [7]: 0.6 L/kg | half-life [8]: 13 h | Vd [9]: 0.8 L/kg | bioavailability [11]: 10% | EC50 [12]: > 10 µM | bioavailability [14]: 80% | EC50 [15]: > 10 µM | bioavailability [18]: 52% | AUC [19]: 76.5 µM·h
SMILES: Cn1nc(C(=O)N(Cc2ccccc2)Cc2ccc(C(=O)O)cc2)c2c1-c1cc(Cl)ccc1OC2 [NIDUFEXOR]
Activity (Mus musculus [4]): Active | Activity (Rattus norvegicus [5]): Dose-dependent effect | fold change (FC) [10]: 24 | Activity (Rattus norvegicus [13]): Dose-dependent effect | Activity (Rattus norvegicus [16]): Dose-dependent effect | Activity (Mus musculus [17]): Active | Activity (Mus musculus [20]): Dose-dependent effect

From ChEMBL document CHEMBL4402557, “Nidufexor (LMB763), a Novel FXR Modulator for the Treatment of Nonalcoholic Steatohepatitis” (J Med Chem, 2020)
